ChEMBL document CHEMBL1150784, “Multicopy blaOXA-58 gene as a source of high-level resistance to carbapenems in Acinetobacter baumannii” (2007)
≈ marks a conversion by molar mass, not a printed value.

Key:
[1] = tested on: Acinetobacter baumannii; test: Antimicrobial activity against carbapenem-resistant Acinetobacter baumannii T193 isolate carrying two bla-OXA58 gene copies by agar dilution method; assay type: functional
[2] = tested on: Acinetobacter baumannii; test: Antimicrobial activity against carbapenem-resistant Acinetobacter baumannii BM4547 by agar dilution method; assay type: functional
[3] = target: Beta-lactamase OXA-58 (Acinetobacter baumannii) (UniProt Q2TR58); test: Activity of Acinetobacter baumannii […] OXA58 assessed as hydrolytic specific activity per mg of protein
[4] = tested on: Acinetobacter baumannii; test: Antimicrobial activity against carbapenem-resistant Acinetobacter baumannii T183 isolate carrying one bla-OXA58 gene copy by agar dilution method; assay type: functional
[5] = target: Beta-lactamase OXA-58 (Acinetobacter baumannii) (UniProt Q2TR58); test: Activity of OXA58 from Acinetobacter baumannii 193 isolate carrying two bla-OXA58 gene copy assessed as hydrolytic specific activity per mg of protein
[6] = tested on: Acinetobacter baumannii; test: Antimicrobial activity against carbapenem-resistant Acinetobacter baumannii T186 isolate carrying three bla-OXA58 gene copies by agar dilution method; assay type: functional
[7] = target: Beta-lactamase OXA-58 (Acinetobacter baumannii) (UniProt Q2TR58); test: Activity of OXA58 from Acinetobacter baumannii 183 isolate carrying one bla-OXA58 gene copy assessed as hydrolytic specific activity per mg of protein
[8] = target: Beta-lactamase OXA-58 (Acinetobacter baumannii) (UniProt Q2TR58); test: Activity of OXA58 from Acinetobacter baumannii 186 isolate carrying three bla-OXA58 gene copy assessed as hydrolytic specific activity per mg of protein
[9] = tested on: Klebsiella pneumoniae; test: Antimicrobial activity against Klebsiella pneumoniae isolate expressing VIM1 gene; assay type: functional
[10] = target: Beta-lactamase OXA-58 (Acinetobacter baumannii) (UniProt Q2TR58); test: Activity of OXA58 from Acinetobacter baumannii T183 isolate carrying one bla-OXA58 gene copy assessed as hydrolytic specific activity per mg of protein
[11] = tested on: Acinetobacter baumannii; test: Antimicrobial activity against carbapenem-resistant Acinetobacter baumannii 183 isolate carrying one bla-OXA58 gene copy by agar dilution method; assay type: functional
[12] = tested on: Acinetobacter baumannii; test: Antimicrobial activity against carbapenem-resistant Acinetobacter baumannii 193 isolate carrying two bla-OXA58 gene copies by agar dilution method; assay type: functional
[13] = target: Beta-lactamase OXA-58 (Acinetobacter baumannii) (UniProt Q2TR58); test: Activity of OXA58 from Acinetobacter baumannii T193 isolate carrying two bla-OXA58 gene copy assessed as hydrolytic specific activity per mg of protein
[14] = target: Beta-lactamase OXA-58 (Acinetobacter baumannii) (UniProt Q2TR58); test: Activity of OXA58 from Acinetobacter baumannii T186 isolate carrying three bla-OXA58 gene copy assessed as hydrolytic specific activity per mg of protein
[15] = tested on: Acinetobacter baumannii; test: Antimicrobial activity against carbapenem-resistant Acinetobacter baumannii 186 isolate carrying three bla-OXA58 gene copies by agar dilution method; assay type: functional

Beta-lactamase OXA-58 (Acinetobacter baumannii), sequence (Q2TR58 whole entry): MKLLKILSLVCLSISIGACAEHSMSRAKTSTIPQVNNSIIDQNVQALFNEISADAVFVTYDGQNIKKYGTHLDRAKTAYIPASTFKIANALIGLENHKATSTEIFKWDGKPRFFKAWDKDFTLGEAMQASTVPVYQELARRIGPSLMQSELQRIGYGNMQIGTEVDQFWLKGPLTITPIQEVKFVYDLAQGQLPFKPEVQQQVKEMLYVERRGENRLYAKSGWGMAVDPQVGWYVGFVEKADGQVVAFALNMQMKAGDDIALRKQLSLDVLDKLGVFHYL

| Compound | MIC [1] [µg/mL] | MIC [2] [µg/mL] | Activity [3] [U/mg] | MIC [4] [µg/mL] | Activity [5] [U/mg] | MIC [6] [µg/mL] | Activity [7] [U/mg] | Activity [8] [U/mg] | MIC [9] [µg/mL] | Activity [10] [U/mg] | MIC [11] [µg/mL] | MIC [12] [µg/mL] | Activity [13] [U/mg] | Activity [14] [U/mg] | MIC [15] [µg/mL] |
| --- | --- | --- | --- | --- | --- | --- | --- | --- | --- | --- | --- | --- | --- | --- | --- |
| CC(C)(O/N=C(\C(=O)N[C@@H]1C(=O)N2C(C(=O)[O-])=C(C[n+]3ccccc3)CS[C@H]12)c1csc(N)n1)C(=O)O [CEFTAZIDIME] | 8 (≈ 14.6 µM) | 4 (≈ 7.32 µM) | < 0.01 | 8 (≈ 14.6 µM) | 0.077 | 8 (≈ 14.6 µM) | 0.075 |  |  |  |  |  |  |  |  |
| C[C@@H](O)[C@H]1C(=O)N2C(C(=O)O)=C(SCCNC=N)C[C@H]12 [IMIPENEM ANHYDROUS] | 16 (≈ 53.4 µM) | 0.5 (≈ 1.67 µM) | < 0.01 | 6 (≈ 20 µM) | 0.227 | 64 (≈ 214 µM) | 0.165 | 0.27 | 2 (≈ 6.68 µM) | 0.303 | 16 (≈ 53.4 µM) | 32 (≈ 107 µM) | 0.365 | 0.388 |  |
| C[C@@H](O)[C@H]1C(=O)N2C(C(=O)O)=C(S[C@@H]3CN[C@H](C(=O)N(C)C)C3)[C@H](C)[C@H]12 [MEROPENEM] | 4 (≈ 10.4 µM) | 0.5 (≈ 1.3 µM) |  | 3 (≈ 7.82 µM) |  | 8 (≈ 20.9 µM) |  |  |  |  | 4 (≈ 10.4 µM) | 8 (≈ 20.9 µM) |  |  | 12 (≈ 31.3 µM) |
